Measured values reported in PubChem BioAssay AID248 (DTP/NCI, 2004).
Where “and” joins values, the source holds several entries; their conditions need not be identical. Equal values may be shown once. Inconclusive results and toxic doses are left out. No stated cut-off is given here; in the data, active means T/C of 150% or more; inactive means T/C below 125%. Square brackets hold non-standard residues; d marks the D form. Peptide text beside a SMILES is read from it. * marks the point of attachment. ξ: configuration not given here. Cbz = O=C(OCc1ccccc1)*; ξI = CCC(C)C(N)C(=O)O

Test system: L1210 leukemia ip in BDF1 mice, survival T/C
Assay: NCI In Vivo Anticancer Drug Screen. Data for tumor model L1210 Leukemia (intraperitoneal) in B6D2F1 (BDF1) mice
Conditions: endpoint: mean survival time, higher = longer survival
How it was run: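 Tumor cells were implanted, animals were treated, and survival was followed. The result divides the treated measurement by the vehicle-control measurement.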

[1] = dose: 100.0 mg/kg/injection, schedule: Q01DX009 (ip), vehicle: saline with Tween-80
[2] = dose: 100.0 mg/kg/injection, schedule: Q04DX002 (ip), vehicle: Klucel (hydroxypropylcellulose) (HPC)
[3] = dose: 200.0 mg/kg/injection, schedule: Q01DX009 (ip), vehicle: saline with Tween-80
[4] = dose: 200.0 mg/kg/injection, schedule: Q04DX002 (ip), vehicle: Klucel (hydroxypropylcellulose) (HPC)
[5] = dose: 400.0 mg/kg/injection, schedule: Q01DX009 (ip), vehicle: saline with Tween-80
[6] = dose: 400.0 mg/kg/injection, schedule: Q04DX002 (ip), vehicle: Klucel (hydroxypropylcellulose) (HPC)
[7] = dose: 100.0 mg/kg/injection, schedule: Q04DX003 (ip), vehicle: saline
[8] = dose: 200.0 mg/kg/injection, schedule: Q04DX003 (ip), vehicle: saline
[9] = dose: 400.0 mg/kg/injection, schedule: Q04DX003 (ip), vehicle: saline
[10] = dose: 75.0 mg/kg/injection, schedule: Q01DX001 (ip), vehicle: saline
[11] = dose: 150.0 mg/kg/injection, schedule: Q01DX001 (ip), vehicle: saline
[12] = dose: 12.5 mg/kg/injection, schedule: Q04DX003 (ip), vehicle: saline
[13] = dose: 25.0 mg/kg/injection, schedule: Q04DX003 (ip), vehicle: saline
[14] = dose: 50.0 mg/kg/injection, schedule: Q04DX003 (ip), vehicle: saline
[15] = dose: 100.0 mg/kg/injection, schedule: Q04DX003 (ip), vehicle: saline with Tween-80
[16] = dose: 200.0 mg/kg/injection, schedule: Q04DX003 (ip), vehicle: saline with Tween-80
[17] = dose: 400.0 mg/kg/injection, schedule: Q04DX003 (ip), vehicle: saline with Tween-80

Measured: T/C

CC(Oc1cc(Cl)c(Cl)cc1Cl)C(=O)OCc1ccco1 (centres undefined)
inactive: [1] 110 % of control | [2] 100 % of control | [3] 100 % of control | [4] 103 % of control | [5] 104 % of control | [6] 100 % of control

CC(=O)OCc1ccccn1
inactive: dose: 100.0 mg/kg/injection, schedule: Q01DX009 (ip), vehicle: saline 97 % of control | [7] 94 % of control | dose: 200.0 mg/kg/injection, schedule: Q01DX009 (ip), vehicle: saline 97 % of control | [8] 99 % of control | [9] 93 % of control

CNc1ncnc(NC)c1[N+](=O)[O-]
inactive: [2] 101 % of control | [4] 90 % of control

O=C(Oc1cc(Cl)c(S(=O)(=O)F)cc1Cl)c1ccc([N+](=O)[O-])cc1
inactive: [2] 99 % of control | [4] 99 % of control | [6] 92 % of control

CCNC(=O)c1cc2cccc(OC)c2oc1=N
inactive: [7] 105 % of control | [8] 97 % of control | [9] 90 % of control

CC(C)(C)N1CCC1CO (centres undefined)
inactive: [10] 106 % of control | [11] 97 % of control

O=C1C(=O)c2ccccc2C=C1C1CCCCC1
inactive: dose: 50.0 mg/kg/injection, schedule: Q01DX001 (ip), vehicle: carboxymethylcellulose (CMC) 97 % of control | dose: 100.0 mg/kg/injection, schedule: Q01DX001 (ip), vehicle: carboxymethylcellulose (CMC) 114 % of control | dose: 200.0 mg/kg/injection, schedule: Q01DX001 (ip), vehicle: carboxymethylcellulose (CMC) 97 % of control | dose: 400.0 mg/kg/injection, schedule: Q01DX001 (ip), vehicle: carboxymethylcellulose (CMC) 107 % of control

CCOC(=O)Nc1cc(Cl)c2n[nH]nc2n1
inactive: dose: 25.0 mg/kg/injection, schedule: Q01DX005 (ip), vehicle: saline 105 % of control | dose: 50.0 mg/kg/injection, schedule: Q01DX005 (ip), vehicle: saline 113 % of control | dose: 100.0 mg/kg/injection, schedule: Q01DX005 (ip), vehicle: saline 110 % of control

C=C(C/C(=C/S(C)=O)c1ccccc1)c1ccccc1 (centres undefined)
inactive: [10] 97 % of control | [11] 96 % of control | dose: 300.0 mg/kg/injection, schedule: Q01DX001 (ip), vehicle: saline 91 % of control

CCC(C)C(CCN1CCCCC1)(CNC(=O)CN(CC)CC)Cc1cccc2ccccc12 (centres undefined)
inactive: [12] 101 % of control | [13] 103 % of control | [14] 98 % of control

Cc1ccc(NCC(=O)NN)cc1F
inactive: dose: 25.0 mg/kg/injection, schedule: Q04DX002 (ip), vehicle: Klucel (hydroxypropylcellulose) (HPC) 102 % of control | dose: 50.0 mg/kg/injection, schedule: Q04DX002 (ip), vehicle: Klucel (hydroxypropylcellulose) (HPC) 109 % of control | [2] 109 % of control and 112 % of control

CCN(CC)CCNC(c1ccccc1)C(Cl)(Cl)Cl (centres undefined)
inactive: dose: 100.0 mg/kg/injection, schedule: Q01DX001 (ip), vehicle: saline 100 % of control

C=CC[P+](Cc1cccc(OC)c1)(c1ccccc1)c1ccccc1
inactive: dose: 6.25 mg/kg/injection, schedule: Q04DX003 (ip), vehicle: saline 98 % of control | [12] 98 % of control | [13] 98 % of control | [14] 93 % of control

CCC(C)c1c(N)nc(N)[nH]c1=O (centres undefined)
inactive: dose: 100.0 mg/kg/injection, schedule: Q04DX003 (ip), vehicle: Klucel (hydroxypropylcellulose) (HPC) 94 % of control | dose: 200.0 mg/kg/injection, schedule: Q04DX003 (ip), vehicle: Klucel (hydroxypropylcellulose) (HPC) 106 % of control | dose: 400.0 mg/kg/injection, schedule: Q04DX003 (ip), vehicle: Klucel (hydroxypropylcellulose) (HPC) 110 % of control

CC(=O)Nc1ccc(S(=O)(=O)Nc2cc(C)ns2)cc1
inactive: [7] 92 % of control | [8] 96 % of control | [9] 100 % of control

CC(=O)CCC(=O)OC(C)(C)CN
inactive: dose: 50.0 mg/kg/injection, schedule: Q01DX009 (ip), vehicle: saline with Tween-80 102 % of control | dose: 50.0 mg/kg/injection, schedule: Q04DX003 (ip), vehicle: saline with Tween-80 99 % of control | [1] 103 % of control | [15] 87 % of control | [3] 107 % of control | [16] 91 % of control | [5] 103 % of control | [17] 96 % of control

Cc1cc(Cl)ccc1OC(=O)Nc1cccc2ccccc12
inactive: dose: 50.0 mg/kg/injection, schedule: Q01DX009 (ip), vehicle: carboxymethylcellulose (CMC) 97 % of control and 101 % of control | dose: 50.0 mg/kg/injection, schedule: Q04DX003 (ip), vehicle: carboxymethylcellulose (CMC) 103 % of control | dose: 100.0 mg/kg/injection, schedule: Q01DX009 (ip), vehicle: carboxymethylcellulose (CMC) 102 % of control and 104 % of control | [2] 101 % of control | dose: 100.0 mg/kg/injection, schedule: Q04DX002 (ip), vehicle: carboxymethylcellulose (CMC) 98 % of control and 91 % of control | dose: 100.0 mg/kg/injection, schedule: Q04DX003 (ip), vehicle: carboxymethylcellulose (CMC) 100 % of control | dose: 200.0 mg/kg/injection, schedule: Q01DX009 (ip), vehicle: carboxymethylcellulose (CMC) 94 % of control and 92 % of control | [4] 112 % of control | dose: 200.0 mg/kg/injection, schedule: Q04DX002 (ip), vehicle: carboxymethylcellulose (CMC) 98 % of control and 100 % of control | dose: 200.0 mg/kg/injection, schedule: Q04DX003 (ip), vehicle: carboxymethylcellulose (CMC) 95 % of control | [6] 104 % of control | dose: 400.0 mg/kg/injection, schedule: Q04DX002 (ip), vehicle: carboxymethylcellulose (CMC) 104 % of control

CCC(C)C(NC(=O)CNC(=O)OCc1ccccc1)C(=O)O (stereo not drawn) (Cbz-Gly-[ξI]-OH)
inactive: [15] 107 % of control | [16] 97 % of control | [17] 98 % of control

Cc1ccc(C(=O)C2CN(C)CCC2(O)c2ccc(C)cc2)cc1 (centres undefined)
inactive: [15] 96 % of control | [16] 103 % of control | [17] 96 % of control

CCOC1OCN(C(C)C)CC1(C)C (centres undefined)
inactive: dose: 75.0 mg/kg/injection, schedule: Q01DX009 (ip), vehicle: saline 110 % of control | dose: 150.0 mg/kg/injection, schedule: Q01DX009 (ip), vehicle: saline 119 % of control

O=C(/C=C/c1c(Cl)cccc1Cl)c1ccc(Cl)cc1
inactive: [1] 98 % of control | [15] 90 % of control | [3] 95 % of control | [16] 90 % of control | [5] 90 % of control | [17] 91 % of control

C1C2CC3CC1CC(C2)C31CO1 (centres undefined)
inactive: [2] 90 % of control | [4] 90 % of control | [6] 105 % of control

CCOc1ccc(Br)cc1/C=C1/NC(=O)NC1=O
inactive: [1] 95 % of control | dose: 100.0 mg/kg/injection, schedule: Q04DX002 (ip), vehicle: saline with Tween-80 102 % of control | [3] 101 % of control | dose: 200.0 mg/kg/injection, schedule: Q04DX002 (ip), vehicle: saline with Tween-80 97 % of control | [5] 98 % of control | dose: 400.0 mg/kg/injection, schedule: Q04DX002 (ip), vehicle: saline with Tween-80 97 % of control

O=C(OC1CCCCCCC1OC(=O)c1ccc([N+](=O)[O-])cc1)c1ccc([N+](=O)[O-])cc1 (centres undefined)
inactive: dose: 75.0 mg/kg/injection, schedule: Q01DX001 (ip), vehicle: carboxymethylcellulose (CMC) 93 % of control | dose: 150.0 mg/kg/injection, schedule: Q01DX001 (ip), vehicle: carboxymethylcellulose (CMC) 91 % of control | dose: 300.0 mg/kg/injection, schedule: Q01DX001 (ip), vehicle: carboxymethylcellulose (CMC) 91 % of control
